Assay results: patent US20100160356A1, “NOVEL CYCLOBUTYL COMPOUNDS AS KINASE INHIBITORS” (priority 2006, published 2010)
In brackets after ≈: the same amount, converted by molar mass.

What was measured:
FAK = FAK (Homo sapiens, UniProt Q05397); test: Inhibition of FAK (flashplate assay); format: biochemical; details: flashplate method
Experimental: The test plates used are 384-well flashplate microtitre plates from Perkin Elmer (USA). The components of the kinase reaction are pipetted into the assay plate. The FAK kinase is incubated for 3 hr. with radioactively labelled ^33P-ATP in the presence and absence of test substances in a total volume of 100 μl at room temperature together with biotinylated poly(Glu, Tyr)4:1. The reaction is terminated using 25 μl of a 200 mM EDTA solution. After incubation for a further 30 min at room temperature, the supernatants are removed by suction, and the wells are washed three times with 100 μl of 0.9% NaCl solution each time. The radioactivity is measured using a Topcount scintillation counter (PerkinElmer, USA). IC50 values are calculated using the RS1 computer program.

[1] = Solubility in phosphate buffer by the shake flask method; format: physicochemical; details: pH 7.0, 37° C., 24 h shake flask; for solubility at 24 h: 37 °C, pH 7, aqueous buffer, thermodynamic from solid
Experimental: The procedure described in Glomme et al. (J. Pharm. Sci. 94(1): 1-16, 2005) is followed. The concentration determination is carried out by HPLC with UV detection against a standard solution.
Buffer: 3.954 g of sodium dihydrogenphosphate monohydrate 6.024 g of sodium chloride +950 ml of ultrapure water. Setting of pH 7.0 using 0.1 M NaOH or 0.1 M HCl.
The samples were shaken at 37° C. and 450 rpm for 24 h. After about 7 h, the pH of the samples was checked and adjusted if necessary. It was checked whether the sample was still present in excess. Just before the end of the 24 h shaking time, the samples were again checked for pH and a precipitate.
• Ultrapure water plant: MilliQ gradient, Millipore, unit: F3PN37462D • Shaker: TiMix control, Bühler • Incubation hood: TH 15, Bühler • pH meter: 766 Calimatic Knick instrument: pH 1 • pH electrode: InLab 423 Mettler • HPLC: column: LiChroCart 125-4 LiChrospher 100 RP-18 • flow rate: 1.000 ml/min • eluents: • eluent A: 2 ml of diethylamine, for synthesis+1000 ml of methanol, LiChrosolv • eluent B: 5 g of ammonium acetate, for analysis+5 ml of methanol, LiChrosolv+995 ml of ultrapure water

IGF1R = IGF1R (Homo sapiens, UniProt P08069); test: Inhibition of IGF1R (flashplate assay); format: biochemical; details: flashplate method
Sequence of IGF1R (P08069 31-1367, species assumed): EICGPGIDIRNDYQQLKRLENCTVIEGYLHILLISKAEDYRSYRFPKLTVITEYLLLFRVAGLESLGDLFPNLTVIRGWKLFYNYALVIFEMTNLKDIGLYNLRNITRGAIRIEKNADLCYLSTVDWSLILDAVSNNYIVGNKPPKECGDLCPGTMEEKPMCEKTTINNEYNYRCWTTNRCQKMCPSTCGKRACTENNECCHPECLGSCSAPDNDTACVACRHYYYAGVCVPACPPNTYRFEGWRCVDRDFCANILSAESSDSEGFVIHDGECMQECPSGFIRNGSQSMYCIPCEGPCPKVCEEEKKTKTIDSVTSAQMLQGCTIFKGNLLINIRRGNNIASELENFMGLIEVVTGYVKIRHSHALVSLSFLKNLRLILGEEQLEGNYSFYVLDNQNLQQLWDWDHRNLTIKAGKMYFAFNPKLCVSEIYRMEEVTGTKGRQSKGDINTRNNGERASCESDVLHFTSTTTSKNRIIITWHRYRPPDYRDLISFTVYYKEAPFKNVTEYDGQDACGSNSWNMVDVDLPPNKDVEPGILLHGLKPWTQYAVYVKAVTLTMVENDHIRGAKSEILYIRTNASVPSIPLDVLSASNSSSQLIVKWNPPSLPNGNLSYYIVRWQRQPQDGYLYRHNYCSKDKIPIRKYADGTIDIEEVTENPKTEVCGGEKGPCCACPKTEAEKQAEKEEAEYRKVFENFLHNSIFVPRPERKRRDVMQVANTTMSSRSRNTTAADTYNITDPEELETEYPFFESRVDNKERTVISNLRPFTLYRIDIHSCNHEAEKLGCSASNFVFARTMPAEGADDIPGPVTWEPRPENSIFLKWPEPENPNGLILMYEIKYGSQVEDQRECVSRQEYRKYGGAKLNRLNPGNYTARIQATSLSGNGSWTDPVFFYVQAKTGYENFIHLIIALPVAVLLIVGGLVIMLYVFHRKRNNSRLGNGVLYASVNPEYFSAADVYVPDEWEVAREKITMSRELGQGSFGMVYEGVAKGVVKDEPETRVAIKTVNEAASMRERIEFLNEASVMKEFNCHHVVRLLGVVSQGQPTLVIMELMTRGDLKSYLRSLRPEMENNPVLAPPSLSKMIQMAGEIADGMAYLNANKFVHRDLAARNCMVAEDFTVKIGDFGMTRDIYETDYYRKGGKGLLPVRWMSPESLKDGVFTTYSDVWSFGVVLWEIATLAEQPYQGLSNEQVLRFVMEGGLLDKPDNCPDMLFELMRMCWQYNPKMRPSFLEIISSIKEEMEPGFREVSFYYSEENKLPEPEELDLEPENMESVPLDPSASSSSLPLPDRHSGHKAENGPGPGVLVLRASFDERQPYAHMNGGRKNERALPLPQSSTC
Method in brief: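 IGF1R kinase incubated 1 hr at room temperature with ^33P-ATP and biotinylated poly(Glu,Tyr)4:1 ± test compound; stopped with EDTA, wells washed after 30 min. Bound radioactivity counted by scintillation; IC50 calculated.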

[2] = biological target: T1, FAK (focal adhesion kinase) (Homo sapiens, UniProt Q05397); test: Inhibition of FAK (ELISA assay), FAK phosphorylation in cells; format: cell-based; details: human cells with FAK amplification
T1 construct: endogenous in cells; host or cells: Calu-6 or HT-29
T1 sequence (Q05397 whole entry): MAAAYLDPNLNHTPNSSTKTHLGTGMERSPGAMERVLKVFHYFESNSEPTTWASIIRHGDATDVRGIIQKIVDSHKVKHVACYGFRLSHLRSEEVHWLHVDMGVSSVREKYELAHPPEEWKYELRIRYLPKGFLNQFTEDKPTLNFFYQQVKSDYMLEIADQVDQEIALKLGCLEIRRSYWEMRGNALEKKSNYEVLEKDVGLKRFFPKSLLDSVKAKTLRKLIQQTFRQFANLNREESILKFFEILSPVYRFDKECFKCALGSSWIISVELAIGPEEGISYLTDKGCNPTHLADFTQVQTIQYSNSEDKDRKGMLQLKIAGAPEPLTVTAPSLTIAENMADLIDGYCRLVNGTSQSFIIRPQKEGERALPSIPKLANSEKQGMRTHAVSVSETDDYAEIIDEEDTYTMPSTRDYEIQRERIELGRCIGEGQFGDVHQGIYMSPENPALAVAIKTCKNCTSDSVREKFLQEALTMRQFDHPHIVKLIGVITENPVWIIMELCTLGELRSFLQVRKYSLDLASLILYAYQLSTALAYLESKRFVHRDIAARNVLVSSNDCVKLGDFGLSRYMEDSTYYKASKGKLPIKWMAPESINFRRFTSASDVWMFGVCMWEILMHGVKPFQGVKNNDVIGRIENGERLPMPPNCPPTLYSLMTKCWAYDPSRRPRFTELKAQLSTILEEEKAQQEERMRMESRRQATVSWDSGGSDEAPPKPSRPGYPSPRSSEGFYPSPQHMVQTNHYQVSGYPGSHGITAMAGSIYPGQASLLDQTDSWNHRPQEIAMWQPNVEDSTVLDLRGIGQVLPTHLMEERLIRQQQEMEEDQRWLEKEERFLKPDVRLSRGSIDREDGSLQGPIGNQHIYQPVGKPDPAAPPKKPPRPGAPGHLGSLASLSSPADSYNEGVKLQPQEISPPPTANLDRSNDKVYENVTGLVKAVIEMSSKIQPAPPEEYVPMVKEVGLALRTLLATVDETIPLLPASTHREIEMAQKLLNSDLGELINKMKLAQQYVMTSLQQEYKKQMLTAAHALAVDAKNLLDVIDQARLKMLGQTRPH
Method in brief: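 Cells pretreated 45 min with increasing compound concentrations, with a reference inhibitor series as internal control. FAK from lysates captured by specific antibody on ELISA plate or LUMINEX beads; tyrosine phosphorylation detected with anti-phosphotyrosine antibody by chemiluminescence or fluorescence.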

IGF1 receptor (IGF1R) = biological target: T2, IGF1 receptor (IGF1R) (Homo sapiens, UniProt P08069); test: Inhibition of IGF1R (ELISA assay), IGF1-stimulated autophosphorylation in cells; format: cell-based; details: human tumour cells stimulated with IGF1, read-out: IC50 IGF (ELISA)
T2 construct: endogenous in cells; host or cells: MCF-7 or Calu-6
T2 sequence (P08069 31-1367): as the sequence (P08069 31-1367, species assumed) above
Method in brief: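 Cells were preincubated 45 min with increasing compound concentrations, then stimulated 5 min with IGF1. Phospho-IGF1R in lysates was captured by a receptor-specific antibody and detected with anti-phosphotyrosine antibody via chemiluminescence ELISA or fluorescent LUMINEX read-out.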

PDGFRβ = PDGFRβ (Homo sapiens, UniProt P09619); test: Inhibition of PDGFRβ (flashplate assay); format: biochemical; details: flashplate method
Sequence of PDGFRβ (P09619 33-1106, species assumed): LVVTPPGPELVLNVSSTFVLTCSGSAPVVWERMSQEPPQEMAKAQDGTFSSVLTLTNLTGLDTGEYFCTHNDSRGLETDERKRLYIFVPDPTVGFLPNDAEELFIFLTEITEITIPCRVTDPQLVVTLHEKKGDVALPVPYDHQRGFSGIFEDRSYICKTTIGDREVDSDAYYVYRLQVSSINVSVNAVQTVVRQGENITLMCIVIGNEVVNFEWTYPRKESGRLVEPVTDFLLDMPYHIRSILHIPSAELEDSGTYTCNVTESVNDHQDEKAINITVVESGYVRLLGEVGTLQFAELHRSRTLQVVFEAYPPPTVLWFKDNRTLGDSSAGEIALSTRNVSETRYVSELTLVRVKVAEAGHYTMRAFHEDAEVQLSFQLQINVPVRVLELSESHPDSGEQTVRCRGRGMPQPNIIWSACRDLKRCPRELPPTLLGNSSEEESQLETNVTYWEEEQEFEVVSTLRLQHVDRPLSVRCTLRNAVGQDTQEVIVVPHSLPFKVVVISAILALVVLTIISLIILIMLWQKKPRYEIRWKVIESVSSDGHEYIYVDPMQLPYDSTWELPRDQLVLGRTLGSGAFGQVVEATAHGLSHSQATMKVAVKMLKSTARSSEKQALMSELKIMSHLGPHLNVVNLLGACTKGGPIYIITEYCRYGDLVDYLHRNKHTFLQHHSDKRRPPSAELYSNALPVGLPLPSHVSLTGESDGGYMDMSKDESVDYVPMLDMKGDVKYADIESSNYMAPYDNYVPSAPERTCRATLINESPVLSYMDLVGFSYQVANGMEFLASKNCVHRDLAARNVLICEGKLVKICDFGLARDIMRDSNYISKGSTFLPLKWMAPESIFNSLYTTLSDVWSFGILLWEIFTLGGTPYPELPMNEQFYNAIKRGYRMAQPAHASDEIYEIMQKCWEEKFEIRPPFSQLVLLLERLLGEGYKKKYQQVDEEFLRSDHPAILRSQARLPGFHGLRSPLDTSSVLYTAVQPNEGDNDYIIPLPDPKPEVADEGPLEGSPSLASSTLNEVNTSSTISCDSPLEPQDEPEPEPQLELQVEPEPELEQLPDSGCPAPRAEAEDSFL
Method in brief: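 Autophosphorylation of PDGFRβ kinase with ^33P-ATP, ± test compound, 3 hr at room temperature in flashplates. Stopped with EDTA, washed, and bound radioactivity counted by scintillation. IC50 calculated from the counts.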

Sequence of FAK (Q05397 whole entry, species assumed): as the sequence (Q05397 whole entry) above

SMILES | IC50 (FAK) | solubility at 24 h [1] | IC50 (IGF1R) | IC50 [2] | IC50 (IGF1 receptor (IGF1R)) | IC50 (PDGFRβ) | Solubility [1] | Solubility ([1]; listed as 3-[4-Amino-7-(3-pyrrolidin-1-ylmethylcyclobutyl)-7H-pyrrolo[2,3-d]pyrimidin-5-yl)
Nc1ncnc2c1c(-c1cccc(O)c1)cn2C1CC(CN2CCCC2)C1 (centres unmarked) [Compound 1, 3-[4-amino-7-(3-pyrrolidin-1-ylmethylcyclobutyl)-7H-pyrrolo[2,3-d]pyrimidin-5-yl]phenol] | 1.8 µM | 1.07 mg/mL (≈ 2.95 mM) | 0.06 µM | 0.077 µM | 2.4 µM | 0.097 µM |  | 
Nc1ncnc2c1c(-c1cccc(O)c1)cn2C1CC(CN2CCCC2)C1 (centres unmarked) [Compound 2, 3-[4-Amino-7-(3-pyrrolidin-1-ylmethylcyclobutyl)-7H-pyrrolo[2,3-d]pyrimidin-5-yl]phenol] | 2.7 µM |  | 0.11 µM | 0.26 µM | 5.9 µM | 0.12 µM | 1147 µg/mL (≈ 3.16 mM) | 1147 (tosylate) μg/ml
NCC1CC(n2cc(-c3ccc4[nH]ccc4c3)c3c(N)ncnc32)C1 (centres unmarked) [Compound 3, 7-(3-Aminomethylcyclobutyl)-5-(1H-indol-5-yl)-7H-pyrrolo[2,3-d]pyrimidin-4-ylamine] | 7.9 µM | 1.33 mg/mL (≈ 3.99 mM) | 0.93 µM | 0.37 µM | 5 µM | 0.15 µM |  | 
NCC1CC(n2cc(-c3cc4ccccc4o3)c3c(N)ncnc32)C1 (centres unmarked) [Compound 37] |  |  | 8.4 µM | 6.1 µM | 29 µM | 0.17 µM |  | 
